Reference: the NIST ThermoML archive (doi:10.1016/j.jct.2018.01.014)
Where “and” joins values, the source holds several entries; their conditions need not be identical. Equal entries are not always repeated. ± gives the expanded uncertainty stated by the source.

Conditions: Liquid, Transpiration method

## CN1CCC[C@H]1c1cccnc1 [(-)-3-(N-methylpyrrolidino)pyridine]
288.7 K
  vapor or sublimation pressure: 0.002398 ± 0.00015 kPa
293.8 K
  vapor or sublimation pressure: 0.003508 ± 0.00023 kPa
298.5 K
  vapor or sublimation pressure: 0.005519 ± 0.00039 kPa
303.3 K
  vapor or sublimation pressure: 0.008212 ± 0.00056 kPa
308.2 K
  vapor or sublimation pressure: 0.01232 ± 0.00082 kPa and 0.01187 ± 0.00079 kPa
313.1 K
  vapor or sublimation pressure: 0.01822 ± 0.0012 kPa
318.1 K
  vapor or sublimation pressure: 0.02642 ± 0.0017 kPa
323 K
  vapor or sublimation pressure: 0.03648 ± 0.0023 kPa
327.9 K
  vapor or sublimation pressure: 0.05164 ± 0.0033 kPa
333.2 K
  vapor or sublimation pressure: 0.07337 ± 0.0046 kPa
335.7 K
  vapor or sublimation pressure: 0.08301 ± 0.0052 kPa
338.2 K
  vapor or sublimation pressure: 0.1012 ± 0.0063 kPa
340.7 K
  vapor or sublimation pressure: 0.1124 ± 0.0071 kPa
343.1 K
  vapor or sublimation pressure: 0.1387 ± 0.0088 kPa
345.6 K
  vapor or sublimation pressure: 0.1639 ± 0.01 kPa
348.2 K
  vapor or sublimation pressure: 0.2061 ± 0.013 kPa
350.6 K
  vapor or sublimation pressure: 0.222 ± 0.014 kPa
353.2 K
  vapor or sublimation pressure: 0.2733 ± 0.017 kPa
358.1 K
  vapor or sublimation pressure: 0.3726 ± 0.023 kPa
363.2 K
  vapor or sublimation pressure: 0.5077 ± 0.032 kPa
368.1 K
  vapor or sublimation pressure: 0.6692 ± 0.042 kPa
373.1 K
  vapor or sublimation pressure: 0.8635 ± 0.053 kPa
